# Test results published in the supplement of paper PMC8988213.
# Where a name gives a salt, the structure may show the parent alone.
# How the values were obtained:
# [1] = test system: ID188 patient-derived PDAC 2D line (pre-FOLFIRINOX); assay: normalised area under dose-response curve (viability relative to DMSO, 7 doses up to 10 µM) (fraction (AUC)); higher = less sensitive (more viability retained); details: 72 h; top dose: 10 µM
# Procedure, shortened: (§1)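 Patient-derived 2D PDAC cells grown out from organoids were seeded robotically at 1,500–3,000 cells/well in 96-well plates and incubated overnight at 37°C, 5% CO2. SelleckChem library compounds were added at seven concentrations (3-fold dilution series, highest 10 µM) for 72 h. CellTiter-Glo luminescence was read after 10 min. Viability was normalised to the DMSO control, and area under the dose-response curve was derived with the GRmetrics R package.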
# [2] = test system: ID211 patient-derived PDAC 2D line (post-FOLFIRINOX); assay: as above; details: 72 h; top dose: 10 µM
# Procedure, shortened: as §1
Structure (SMILES),normalised area under dose-response curve [1],normalised area under dose-response curve [2]
C#Cc1cccc(Nc2ncnc3cc(OC)c(OCCCCCCC(=O)NO)cc23)c1 [CUDC-101],0.827,0.765
CN1CCC(CNc2ccc3ncc(-c4cccc(OC(F)(F)F)c4)n3n2)CC1 [SGI-1776 free base],0.949,0.788
O=C(c1cncc(Br)c1)N1CCC(N2CCCC2)CC1 [UNC669],0.922,0.946
COC(=O)c1ccc2c(c1)nc(NC(=O)c1ccccc1)n2CCCc1ccccc1 [BRD4770],0.887,0.836
Cc1ccc(F)c(NC(=O)Nc2ccc(-c3cccc4[nH]nc(N)c34)cc2)c1 [Linifanib (ABT-869)],0.889,0.814
COc1cc(OC)cc(N(CCNC(C)C)c2ccc3ncc(-c4cnn(C)c4)nc3c2)c1,0.927,0.893
CC(=O)N1c2ccc(-c3ccc(C(=O)O)cc3)cc2[C@H](Nc2ccc(Cl)cc2)C[C@@H]1C,0.815,0.732
Cc1cc(O)c(-c2ccc([C@@H](C)CN)cc2)c2c1[nH]c(=O)c1sccc12 [OTS514 hydrochloride],0.368,0.443
NCCCC[C@H](NC(=O)[C@@H](NC(=O)[C@H](Cc1c[nH]c2ccccc12)NC(=O)[C@H](CCCCN)NC(=O)[C@H](CCCCN)NC(=O)[C@H](Cc1c[nH]c2ccccc12)NC(=O)[C@H](Cc1c[nH]c2ccccc12)NC(=O)[C@H](CCCCN)NC(=O)[C@@H](N)CCCCN)C(c1ccccc1)c1ccccc1)C(N)=O [LTX-315],0.943,0.804
C=CC(=O)Nc1cccc(Oc2nc(Nc3ccc(N4CCN(C)CC4)cc3)nc3ccsc23)c1,0.921,0.75
CC(C)=CCC/C(C)=C/CC/C(C)=C/CSc1ccccc1C(=O)O [Salirasib],0.949,0.881
Cn1nccc1Nc1nccc(-c2ccn([C@H](CO)c3ccc(Cl)c(F)c3)c(=O)c2)n1 [GDC-0994],0.824,0.677
COc1cc(OC)c(/C=C/S(=O)(=O)Cc2ccc(OC)c(NCC(=O)O)c2)c(OC)c1,0.746,0.557
CC(=O)c1cc([N+](=O)[O-])c(Sc2cccc(Cl)c2Cl)s1,0.98,0.848
"CCNC(=O)c1noc(-c2cc(C(C)C)c(O)cc2O)c1-c1ccc(CN2CCOCC2)cc1 [Luminespib (AUY-922, NVP-AUY922)]",0.485,0.345
COc1nnc2ccc(N3CCC(c4ccc(OCCN5CCN(C)C(=O)[C@H]5C)cc4)CC3)nn12 [AZD5153],0.723,0.59
Oc1c2ccccc2c2c3c(cccc13)N=N2,0.881,1.04
C[C@@H](Oc1cc(-n2cnc3ccc(CN4CCN(C)CC4)cc32)sc1C(N)=O)c1ccccc1C(F)(F)F,0.687,0.726
CNC(=O)c1ccc(-c2cnc3ncc(Cc4ccc5ncccc5c4)n3n2)cc1F,0.956,0.855
COc1ccc(-c2cc3nccn3c(Nc3ncccc3C(N)=O)n2)cc1OC [BAY-61-3606],0.871,0.79
CN[C@@H](C)C(=O)N[C@H](C(=O)N1CCC[C@H]1C(=O)Nc1snnc1-c1ccccc1)C1CCCCC1 [GDC-0152],0.667,0.849
N[C@@H]1CCCN(c2c(/C=C3\SC(=O)NC3=O)cccc2-c2ccccc2)C1 [AZD1208],0.958,0.841
Cc1cc(NC(=O)c2cccc(NC(=O)/C=C/CN(C)C)c2)ccc1Nc1nccc(-c2cccnc2)n1 [JNK-IN-8],0.874,0.842
COc1cc2c(cc1OC(C)C)[C@H](c1ccc(Cl)cc1)N(c1ccc(N(C)C[C@H]3CC[C@H](N4CCN(C)C(=O)C4)CC3)cc1)C(=O)C2 [NVP-CGM097],0.988,0.72
CC(C)(C)c1[nH]cnc1/C=c1\[nH]c(=O)/c(=C/c2ccccc2)[nH]c1=O [Plinabulin (NPI-2358)],0.588,0.355
CN[C@@H](C)C(=O)N[C@H](C(=O)N1CCC[C@H]1c1nc(C(=O)c2ccc(F)cc2)cs1)C1CCCCC1 [LCL161],0.585,0.922

Structure (SMILES),normalised area under dose-response curve [1],normalised area under dose-response curve [2]
Nc1ccn([C@@H]2O[C@H](CO)[C@@H](O)C2(F)F)c(=O)n1 [Gemcitabine HCl],0.57,0.583
O=C(Nc1cccc(Nc2ncc(Br)c(NCCc3cnc[nH]3)n2)c1)N1CCCC1 [BX-912],0.595,0.893
CC(C)(C)C(=O)Nc1ccc2c(c1)C(=O)C(=O)c1ccccc1-2 [SF1670],0.966,0.809
CCc1cc2c(cc1N1CCC(N3CCOCC3)CC1)C(C)(C)c1[nH]c3cc(C#N)ccc3c1C2=O [Alectinib hydrochloride],0.779,0.789
Cc1cc2c(F)c(Oc3ncnn4cc(OC[C@@H](C)O)c(C)c34)ccc2[nH]1,0.918,0.813
O=C(Nc1cccc2cccnc12)c1ccc(N2C(=O)[C@@H]3[C@H](C2=O)[C@@H]2C=C[C@H]3C2)cc1 [IWR-1-endo],0.938,0.808
Cc1nc(Nc2cnn(C3CCNCC3)c2)nc2c1N(C)C(=O)c1cc3ccccc3cc1N2C [HTH-01-015],1.2,0.823
C[C@H]1CNC(=O)c2cnn3ccc(nc23)N[C@H](C)c2cc(F)ccc2O1 [TPX-0005],0.777,0.728
FC(F)c1nc2ccccc2n1-c1nc(N2CCOCC2)nc(N2CCOCC2)n1 [ZSTK474],0.712,0.642
CNc1nc(-c2ccc3c(N)n[nH]c3c2)cc(N2C[C@@H](C(=O)NC3CCCCC3)CC[C@H]2C)n1,0.869,0.71
"CC(C)n1nc(-c2ccc3oc(N)nc3c2)c2c(N)ncnc21 [Sapanisertib (INK 128, MLN0128)]",0.541,0.389
O=C(Cc1ccccc1)Nc1nnc(CCSCCc2nnc(NC(=O)Cc3ccccc3)s2)s1 [BPTES],0.861,0.854
Cc1cc(/N=N/c2ccc(S(=O)(=O)Nc3ccccn3)cc2)c(N)cc1O [MS436],0.977,0.957
CCc1c2c(nc3ccc(OC(=O)N4CCC(N5CCCCC5)CC4)cc13)-c1cc3c(c(=O)n1C2)COC(=O)[C@]3(O)CC [Irinotecan HCl Trihydrate],0.847,0.807
CC1=C(C(=O)OC2CCCCC2)C(c2ccc([N+](=O)[O-])cc2)C2=C(CC(C)(C)CC2=O)N1 (centres undefined) [FLI-06],0.936,0.792
CN(C)C(=O)c1cc2cnc(Nc3ccc(N4CCNCC4)cn3)nc2n1C1CCCC1 [Ribociclib (LEE011)],0.961,0.812
Cn1cncc1[C@@](N)(c1ccc(Cl)cc1)c1ccc2c(c1)c(-c1cccc(Cl)c1)cc(=O)n2C [Tipifarnib],0.913,0.832
C=CC(=O)N1CCC[C@@H](n2nc(-c3ccc(Oc4ccccc4)cc3)c3c(N)ncnc32)C1,0.794,0.71
CCn1c(=O)c(-c2cc[nH]n2)cc2c(C)nc(N)nc21,0.814,0.792
COc1cc2c(c(OC)c1OC)-c1ccc(OC)c(=O)cc1[C@@H](NC(C)=O)CC2 [Colchicine],0.562,0.589
Cn1cc(C2=C(c3cn(CCCSC(=N)N)c4ccccc34)C(=O)NC2=O)c2ccccc21 [Bisindolylmaleimide IX (Ro 31-8220 Mesylate)],0.942,0.788
COc1cc2c(Oc3ccc4[nH]c(C)cc4c3F)ncnc2cc1OCCCN1CCCC1 [Cediranib (AZD2171)],0.927,0.83
CS(=O)(=O)OCCCCOS(C)(=O)=O [Busulfan],0.948,0.814
Nc1nccc(Oc2ccc(NC(=O)c3c[nH]cc(-c4ccc(F)cc4)c3=O)cc2F)c1Cl,0.939,0.911
O=C(O)c1ccc(-c2c[nH]c3ncc(-c4ccccc4)cc23)cc1C1CCCC1,0.924,0.913
Cc1cn(CCN2CCN(c3ccccc3-c3cc(C#N)cc(C(=O)NCCCN4CCCC4)c3)CC2)c2ccccc12 [LLY-507],0.859,0.842
